As usually defined, the IC50 is the midpoint of a concentration-inhibition curve.

The target of one data set is Acetylcholinesterase (Homo sapiens, UniProt P22303). Put plainly: DRUGMATRIX: Acetylcholinesterase enzyme inhibition (substrate: acetylthiocholine). The conditions noted are these: hek293; Not Active = under 50% inhibition at 10 µM. Type of data set: cell-based, HEK293.
Acetylcholinesterase, sequence (P22303 whole entry): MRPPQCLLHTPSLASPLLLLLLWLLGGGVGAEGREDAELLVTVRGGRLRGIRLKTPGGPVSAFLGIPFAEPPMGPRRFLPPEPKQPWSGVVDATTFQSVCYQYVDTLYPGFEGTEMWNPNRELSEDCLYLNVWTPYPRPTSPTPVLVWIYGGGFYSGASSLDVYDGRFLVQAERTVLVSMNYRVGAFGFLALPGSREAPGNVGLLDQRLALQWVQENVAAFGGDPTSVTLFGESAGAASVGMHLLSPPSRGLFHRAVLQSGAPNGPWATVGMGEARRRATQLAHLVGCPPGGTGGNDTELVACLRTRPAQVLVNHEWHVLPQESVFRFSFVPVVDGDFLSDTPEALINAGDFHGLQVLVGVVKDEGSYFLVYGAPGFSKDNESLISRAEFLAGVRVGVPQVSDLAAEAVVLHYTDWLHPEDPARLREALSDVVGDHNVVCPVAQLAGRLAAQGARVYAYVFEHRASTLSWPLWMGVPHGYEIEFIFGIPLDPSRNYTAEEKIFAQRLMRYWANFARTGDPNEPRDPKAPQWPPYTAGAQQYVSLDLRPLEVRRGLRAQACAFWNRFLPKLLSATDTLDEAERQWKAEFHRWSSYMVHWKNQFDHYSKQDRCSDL
Turning to `O=P1(NCCCl)OCCCN1CCCl` (configuration not stated) [IFOSFAMIDE], the IC50 entry is given as “Not Active”.

Regarding `CCCCOC(=O)c1ccc(N)cc1` [BUTAMBEN], the IC50 result is listed as “Not Active”.

Regarding `COC(=O)[C@H](c1ccccc1Cl)N1CCc2sccc2C1` [CLOPIDOGREL], the half-inhibitory concentration (IC50) entry is reported as “Not Active”.

As to `CC(C)NC[C@H](O)COc1cccc2[nH]ccc12`, the IC50 entry is reported as “Not Active”.

As for `CCCSc1ccc2nc(NC(=O)OC)[nH]c2c1` [ALBENDAZOLE], the IC50 result is listed as “Not Active”.

In the case of `CN1C[C@H](C(=O)N[C@]2(C)O[C@@]3(O)[C@@H]4CCCN4C(=O)[C@H](Cc4ccccc4)N3C2=O)C=C2c3cccc4[nH]cc(c34)C[C@H]21` [ERGOTAMINE], the IC50 entry is recorded as “Not Active”.

A further data set deals with Vasopressin V1a receptor (Homo sapiens, UniProt P37288).
Vasopressin V1a receptor, sequence (P37288 whole entry): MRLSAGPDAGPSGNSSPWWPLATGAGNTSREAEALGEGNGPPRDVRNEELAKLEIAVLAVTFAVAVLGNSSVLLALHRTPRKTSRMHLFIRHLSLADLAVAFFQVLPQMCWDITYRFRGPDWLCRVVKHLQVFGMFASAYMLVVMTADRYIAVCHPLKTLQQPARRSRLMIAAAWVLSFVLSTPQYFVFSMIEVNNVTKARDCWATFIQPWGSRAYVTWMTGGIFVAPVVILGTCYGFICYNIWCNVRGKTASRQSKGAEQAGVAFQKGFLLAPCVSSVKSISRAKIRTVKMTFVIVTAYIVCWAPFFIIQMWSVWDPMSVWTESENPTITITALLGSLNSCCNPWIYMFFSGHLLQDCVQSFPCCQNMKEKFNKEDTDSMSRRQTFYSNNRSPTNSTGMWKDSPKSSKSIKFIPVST
Assay: not given
Type of data set: cell membranes, Membrane. The conditions noted are these: hek293.
As for `O=P1(NCCCl)OCCCN1CCCl` (configuration not stated) [IFOSFAMIDE], the IC50 result is given as “Not Active”.

On to `CCCCOC(=O)c1ccc(N)cc1` [BUTAMBEN], for which the IC50 entry is recorded as “Not Active”.

With `COC(=O)[C@H](c1ccccc1Cl)N1CCc2sccc2C1` [CLOPIDOGREL], the IC50 entry is on record as “Not Active”.

As to `CC(C)NC[C@H](O)COc1cccc2[nH]ccc12`, the IC50 result was “Not Active”.

Consider `CCCSc1ccc2nc(NC(=O)OC)[nH]c2c1` [ALBENDAZOLE], for which the concentration for half-maximal inhibition (IC50) entry is reported as “Not Active”.

Regarding `CN1C[C@H](C(=O)N[C@]2(C)O[C@@]3(O)[C@@H]4CCCN4C(=O)[C@H](Cc4ccccc4)N3C2=O)C=C2c3cccc4[nH]cc(c34)C[C@H]21` [ERGOTAMINE], the IC50 result was “Not Active”.

A further data set addresses Carbonic anhydrase 2 (Homo sapiens, UniProt P00918). Nature of the data set: DRUGMATRIX: Carbonic Anhydrase II enzyme inhibition (substrate: 4-Nitrophenyl acetate (4-NPA)). It counts as tissue-based, Erythrocyte. The conditions noted are these: erythrocyte; Not Active = under 50% inhibition at 10 µM.
As to `O=P1(NCCCl)OCCCN1CCCl` (configuration not stated) [IFOSFAMIDE], the IC50 result is on record as “Not Active”.

With `CCCCOC(=O)c1ccc(N)cc1` [BUTAMBEN], the IC50 entry is listed as “Not Active”.

Turning to `COC(=O)[C@H](c1ccccc1Cl)N1CCc2sccc2C1` [CLOPIDOGREL], the IC50 result is given as “Not Active”.

As for `CC(C)NC[C@H](O)COc1cccc2[nH]ccc12`, the IC50 result was “Not Active”.

In the case of `CCCSc1ccc2nc(NC(=O)OC)[nH]c2c1` [ALBENDAZOLE], the IC50 result is “Not Active”.

Turning to `CN1C[C@H](C(=O)N[C@]2(C)O[C@@]3(O)[C@@H]4CCCN4C(=O)[C@H](Cc4ccccc4)N3C2=O)C=C2c3cccc4[nH]cc(c34)C[C@H]21` [ERGOTAMINE], the IC50 entry is reported as “Not Active”.

In another data set the target is T1, Neuropeptide Y receptor type 2 (Homo sapiens, UniProt P49146). Note: in other assays of this panel Not Active means under 50% inhibition at 10 µM.
T1 sequence (P49146 whole entry): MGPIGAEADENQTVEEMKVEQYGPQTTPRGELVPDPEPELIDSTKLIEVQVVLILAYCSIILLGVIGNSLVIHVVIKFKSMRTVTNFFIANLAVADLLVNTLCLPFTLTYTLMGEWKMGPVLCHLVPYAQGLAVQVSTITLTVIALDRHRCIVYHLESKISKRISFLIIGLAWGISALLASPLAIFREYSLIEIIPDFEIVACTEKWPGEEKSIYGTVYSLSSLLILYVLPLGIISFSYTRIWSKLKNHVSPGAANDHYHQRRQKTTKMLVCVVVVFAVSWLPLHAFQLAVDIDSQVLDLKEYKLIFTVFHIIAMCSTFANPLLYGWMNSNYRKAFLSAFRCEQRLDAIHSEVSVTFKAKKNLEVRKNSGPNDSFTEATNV
Assay: not given
Type of data set: cell membranes, Membrane. The conditions noted are these: kan-ts.
In the case of `O=P1(NCCCl)OCCCN1CCCl` (configuration not stated) [IFOSFAMIDE], the concentration for half-maximal inhibition (IC50) result is “Not Active”.

`CCCCOC(=O)c1ccc(N)cc1` [BUTAMBEN]: the IC50 entry is given as “Not Active”.

`COC(=O)[C@H](c1ccccc1Cl)N1CCc2sccc2C1` [CLOPIDOGREL]: the IC50 entry is listed as “Not Active”.

Turning to `CC(C)NC[C@H](O)COc1cccc2[nH]ccc12`, the IC50 entry is reported as “Not Active”.

Regarding `CCCSc1ccc2nc(NC(=O)OC)[nH]c2c1` [ALBENDAZOLE], the IC50 entry is recorded as “Not Active”.

Consider `CN1C[C@H](C(=O)N[C@]2(C)O[C@@]3(O)[C@@H]4CCCN4C(=O)[C@H](Cc4ccccc4)N3C2=O)C=C2c3cccc4[nH]cc(c34)C[C@H]21` [ERGOTAMINE], for which the IC50 result is “Not Active”.

In another data set the target is T2, Cytochrome P450 2A6 (Homo sapiens, UniProt P11509). Note: in other assays of this panel Not Active means under 50% inhibition at 10 µM.
T2 sequence (P11509 whole entry): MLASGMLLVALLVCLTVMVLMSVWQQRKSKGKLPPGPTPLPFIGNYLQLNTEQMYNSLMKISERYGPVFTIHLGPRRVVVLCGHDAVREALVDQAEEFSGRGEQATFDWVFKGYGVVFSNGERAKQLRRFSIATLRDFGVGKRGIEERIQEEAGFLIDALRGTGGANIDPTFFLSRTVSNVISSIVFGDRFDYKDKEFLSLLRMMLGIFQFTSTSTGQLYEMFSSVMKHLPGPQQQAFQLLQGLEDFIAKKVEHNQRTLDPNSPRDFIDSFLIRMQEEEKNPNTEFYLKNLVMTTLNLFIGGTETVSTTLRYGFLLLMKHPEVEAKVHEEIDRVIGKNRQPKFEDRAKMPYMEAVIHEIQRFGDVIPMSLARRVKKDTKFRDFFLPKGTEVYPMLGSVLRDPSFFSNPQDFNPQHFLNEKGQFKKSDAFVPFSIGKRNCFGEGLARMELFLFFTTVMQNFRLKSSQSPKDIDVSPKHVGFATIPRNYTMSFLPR
Assay: not given
The conditions noted are these: bti-tn-5b1-4.
Consider `CCCCOC(=O)c1ccc(N)cc1` [BUTAMBEN], for which the IC50 entry is given as “Not Active” and the Ki result is listed as “Not Active”.

With `COC(=O)[C@H](c1ccccc1Cl)N1CCc2sccc2C1` [CLOPIDOGREL], the IC50 entry is recorded as “Not Active” and the Ki result is “Not Active”.

In the case of `CCCSc1ccc2nc(NC(=O)OC)[nH]c2c1` [ALBENDAZOLE], the IC50 result is “Not Active” and the Ki result is on record as “Not Active”.

Consider `CN1C[C@H](C(=O)N[C@]2(C)O[C@@]3(O)[C@@H]4CCCN4C(=O)[C@H](Cc4ccccc4)N3C2=O)C=C2c3cccc4[nH]cc(c34)C[C@H]21` [ERGOTAMINE], for which the 50% inhibitory concentration (IC50) entry is on record as “Not Active” and the Ki result is recorded as “Not Active”.

The target of a further data set is Voltage-gated inwardly rectifying potassium channel KCNH2 (Homo sapiens, UniProt Q12809). Note: in other assays of this panel Not Active means under 50% inhibition at 10 µM.
Voltage-gated inwardly rectifying potassium channel KCNH2, sequence (Q12809 whole entry): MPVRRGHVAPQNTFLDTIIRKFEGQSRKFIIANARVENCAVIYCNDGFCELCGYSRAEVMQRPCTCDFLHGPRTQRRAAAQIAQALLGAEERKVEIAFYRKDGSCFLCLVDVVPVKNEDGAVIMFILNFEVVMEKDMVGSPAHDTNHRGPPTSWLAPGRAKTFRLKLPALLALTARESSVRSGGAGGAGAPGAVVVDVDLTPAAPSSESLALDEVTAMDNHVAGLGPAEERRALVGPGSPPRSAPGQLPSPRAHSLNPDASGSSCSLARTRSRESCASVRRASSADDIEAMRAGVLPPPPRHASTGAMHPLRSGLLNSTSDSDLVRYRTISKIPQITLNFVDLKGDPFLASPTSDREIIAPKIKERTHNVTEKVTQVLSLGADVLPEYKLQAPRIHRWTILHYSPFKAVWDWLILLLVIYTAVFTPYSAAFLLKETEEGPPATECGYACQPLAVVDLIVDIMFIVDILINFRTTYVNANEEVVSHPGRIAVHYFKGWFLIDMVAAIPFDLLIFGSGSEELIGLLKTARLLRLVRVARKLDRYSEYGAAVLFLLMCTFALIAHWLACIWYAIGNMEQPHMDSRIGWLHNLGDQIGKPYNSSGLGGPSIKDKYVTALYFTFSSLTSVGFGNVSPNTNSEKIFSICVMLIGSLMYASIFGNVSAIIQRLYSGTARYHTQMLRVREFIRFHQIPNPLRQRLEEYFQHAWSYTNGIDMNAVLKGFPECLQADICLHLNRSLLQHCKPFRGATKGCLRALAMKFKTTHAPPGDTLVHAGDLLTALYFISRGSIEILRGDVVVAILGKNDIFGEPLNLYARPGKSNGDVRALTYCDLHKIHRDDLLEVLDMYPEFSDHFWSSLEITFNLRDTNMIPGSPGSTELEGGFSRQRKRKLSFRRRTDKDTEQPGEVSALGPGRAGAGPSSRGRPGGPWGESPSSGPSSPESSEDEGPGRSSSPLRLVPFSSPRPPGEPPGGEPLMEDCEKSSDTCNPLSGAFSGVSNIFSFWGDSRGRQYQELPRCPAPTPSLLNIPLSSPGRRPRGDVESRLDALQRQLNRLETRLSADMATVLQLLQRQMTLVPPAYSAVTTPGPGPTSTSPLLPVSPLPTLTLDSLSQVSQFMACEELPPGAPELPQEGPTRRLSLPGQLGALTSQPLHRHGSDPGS
Assay: not given
The conditions noted are these: hek293.
For `O=P1(NCCCl)OCCCN1CCCl` (configuration not stated) [IFOSFAMIDE], the IC50 entry is “Not Active” and the Ki result is “Not Active”.

For `CCCCOC(=O)c1ccc(N)cc1` [BUTAMBEN], the IC50 result is “Not Active” and the Ki entry was “Not Active”.

Regarding `COC(=O)[C@H](c1ccccc1Cl)N1CCc2sccc2C1` [CLOPIDOGREL], the IC50 result is listed as “Not Active” and the Ki entry is reported as “Not Active”.

As to `CC(C)NC[C@H](O)COc1cccc2[nH]ccc12`, the IC50 result was “Not Active” and the Ki entry is “Not Active”.

For `CCCSc1ccc2nc(NC(=O)OC)[nH]c2c1` [ALBENDAZOLE], the IC50 entry is given as “Not Active” and the Ki result is recorded as “Not Active”.

As for `CN1C[C@H](C(=O)N[C@]2(C)O[C@@]3(O)[C@@H]4CCCN4C(=O)[C@H](Cc4ccccc4)N3C2=O)C=C2c3cccc4[nH]cc(c34)C[C@H]21` [ERGOTAMINE], the half-maximal inhibitory concentration (IC50) entry was “Not Active” and the Ki entry was “Not Active”.

The target of another data set is T3, Cytochrome P450 1A2 (Homo sapiens, UniProt P05177). Note: in other assays of this panel Not Active means under 50% inhibition at 10 µM.
T3 sequence (P05177 whole entry): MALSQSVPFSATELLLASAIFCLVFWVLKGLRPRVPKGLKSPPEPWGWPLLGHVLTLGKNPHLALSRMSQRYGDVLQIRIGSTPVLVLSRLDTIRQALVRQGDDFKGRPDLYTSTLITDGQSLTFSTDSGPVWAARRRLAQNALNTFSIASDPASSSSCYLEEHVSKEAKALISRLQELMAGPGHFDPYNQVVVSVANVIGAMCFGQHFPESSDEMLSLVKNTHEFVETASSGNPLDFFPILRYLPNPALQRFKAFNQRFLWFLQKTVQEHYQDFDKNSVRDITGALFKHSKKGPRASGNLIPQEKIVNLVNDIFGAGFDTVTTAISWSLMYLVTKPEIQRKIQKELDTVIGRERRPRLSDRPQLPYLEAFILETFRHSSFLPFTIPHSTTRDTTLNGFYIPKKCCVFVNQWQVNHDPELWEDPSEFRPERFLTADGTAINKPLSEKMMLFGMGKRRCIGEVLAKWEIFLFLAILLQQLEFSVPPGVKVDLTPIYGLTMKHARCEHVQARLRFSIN
Assay: not given
The conditions noted are these: bti-tn-5b1-4.
`COC(=O)[C@H](c1ccccc1Cl)N1CCc2sccc2C1` [CLOPIDOGREL]: the IC50 entry is “Not Active” and the Ki entry is reported as “Not Active”.

With `CCCSc1ccc2nc(NC(=O)OC)[nH]c2c1` [ALBENDAZOLE], the IC50 result is recorded as “Not Active” and the Ki result is “Not Active”.

For the compound `CN1C[C@H](C(=O)N[C@]2(C)O[C@@]3(O)[C@@H]4CCCN4C(=O)[C@H](Cc4ccccc4)N3C2=O)C=C2c3cccc4[nH]cc(c34)C[C@H]21` [ERGOTAMINE], the half-inhibitory concentration (IC50) result is on record as “Not Active” and the Ki result is on record as “Not Active”.

The next data set concerns the target T4, Thromboxane-A synthase (Homo sapiens, UniProt P24557).
T4 sequence (P24557 whole entry): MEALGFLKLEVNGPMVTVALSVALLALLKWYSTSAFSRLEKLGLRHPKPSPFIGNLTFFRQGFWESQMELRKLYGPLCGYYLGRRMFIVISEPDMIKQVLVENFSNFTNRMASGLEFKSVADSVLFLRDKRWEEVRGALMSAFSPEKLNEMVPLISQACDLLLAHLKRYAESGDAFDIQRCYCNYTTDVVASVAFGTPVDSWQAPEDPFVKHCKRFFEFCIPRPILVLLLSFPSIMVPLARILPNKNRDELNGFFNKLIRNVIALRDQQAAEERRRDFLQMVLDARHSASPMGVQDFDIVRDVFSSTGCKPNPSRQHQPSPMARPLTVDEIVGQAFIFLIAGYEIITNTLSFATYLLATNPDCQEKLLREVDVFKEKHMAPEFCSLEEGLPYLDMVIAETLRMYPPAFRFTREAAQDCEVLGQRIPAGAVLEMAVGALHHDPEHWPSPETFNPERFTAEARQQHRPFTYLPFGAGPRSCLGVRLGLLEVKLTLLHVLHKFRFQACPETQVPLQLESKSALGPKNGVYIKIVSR
Nature of the data set: biochemical. It counts as tissue-based, Platelet. The conditions noted are these: platelet.
As for `O=P1(NCCCl)OCCCN1CCCl` (configuration not stated) [IFOSFAMIDE], the IC50 result is recorded as “Not Active”.

Turning to `CCCCOC(=O)c1ccc(N)cc1` [BUTAMBEN], the 50% inhibitory concentration (IC50) result is listed as “Not Active”.

In the case of `COC(=O)[C@H](c1ccccc1Cl)N1CCc2sccc2C1` [CLOPIDOGREL], the IC50 result is on record as “Not Active”.

As to `CC(C)NC[C@H](O)COc1cccc2[nH]ccc12`, the IC50 result is recorded as “Not Active”.

As to `CCCSc1ccc2nc(NC(=O)OC)[nH]c2c1` [ALBENDAZOLE], the IC50 entry was “Not Active”.

The same data set, now with this note: read-out: IC50.
Take `CN1C[C@H](C(=O)N[C@]2(C)O[C@@]3(O)[C@@H]4CCCN4C(=O)[C@H](Cc4ccccc4)N3C2=O)C=C2c3cccc4[nH]cc(c34)C[C@H]21` [ERGOTAMINE]: the IC50 was found to be 3.06 µM.

In the next data set the target is Cytochrome P450 2C19 (Homo sapiens, UniProt P33261). Note: in other assays of this panel Not Active means under 50% inhibition at 10 µM.
Cytochrome P450 2C19, sequence (P33261 whole entry): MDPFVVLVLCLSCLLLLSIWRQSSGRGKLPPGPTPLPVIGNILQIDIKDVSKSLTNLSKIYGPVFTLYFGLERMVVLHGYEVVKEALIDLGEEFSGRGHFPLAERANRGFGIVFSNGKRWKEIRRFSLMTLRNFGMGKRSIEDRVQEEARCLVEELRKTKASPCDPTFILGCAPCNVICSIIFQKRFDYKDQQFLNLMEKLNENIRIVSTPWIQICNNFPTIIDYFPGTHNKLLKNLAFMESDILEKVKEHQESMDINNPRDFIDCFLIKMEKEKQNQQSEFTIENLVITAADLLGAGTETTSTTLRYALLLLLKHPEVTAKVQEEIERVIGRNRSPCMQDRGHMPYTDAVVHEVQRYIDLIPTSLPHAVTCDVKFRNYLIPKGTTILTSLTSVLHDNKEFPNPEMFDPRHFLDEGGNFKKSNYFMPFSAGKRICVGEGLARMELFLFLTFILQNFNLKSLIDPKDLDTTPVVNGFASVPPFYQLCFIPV
Assay: not given
The conditions noted are these: bti-tn-5b1-4.
As for `COC(=O)[C@H](c1ccccc1Cl)N1CCc2sccc2C1` [CLOPIDOGREL], the IC50 result was “Not Active” and the Ki entry is reported as “Not Active”.

Consider `CCCSc1ccc2nc(NC(=O)OC)[nH]c2c1` [ALBENDAZOLE], for which the half-maximal inhibitory concentration (IC50) result is reported as “Not Active” and the Ki result was “Not Active”.

For the compound `CN1C[C@H](C(=O)N[C@]2(C)O[C@@]3(O)[C@@H]4CCCN4C(=O)[C@H](Cc4ccccc4)N3C2=O)C=C2c3cccc4[nH]cc(c34)C[C@H]21` [ERGOTAMINE], the IC50 result is reported as “Not Active” and the Ki result is given as “Not Active”.

The values are drawn from ChEMBL document CHEMBL1909046, “DrugMatrix in vitro pharmacology data”.
